Source: article PMC5041959, “A high-content EMT screen identifies multiple receptor tyrosine kinase inhibitors with activity on TGFβ receptor” (Oncotarget, 2016)
Read-outs that look alike come from different tables or passages of the source.

How the values were obtained:
ROCK2 = ROCK2 (Homo sapiens, UniProt O75116); test: Biochemical kinase profiling (33PanQinase radiometric assay)
TGFBR1 = molecular target: T1, TGFBR1 (Homo sapiens, UniProt P36897); test: as above
T1 sequence (P36897 34-503): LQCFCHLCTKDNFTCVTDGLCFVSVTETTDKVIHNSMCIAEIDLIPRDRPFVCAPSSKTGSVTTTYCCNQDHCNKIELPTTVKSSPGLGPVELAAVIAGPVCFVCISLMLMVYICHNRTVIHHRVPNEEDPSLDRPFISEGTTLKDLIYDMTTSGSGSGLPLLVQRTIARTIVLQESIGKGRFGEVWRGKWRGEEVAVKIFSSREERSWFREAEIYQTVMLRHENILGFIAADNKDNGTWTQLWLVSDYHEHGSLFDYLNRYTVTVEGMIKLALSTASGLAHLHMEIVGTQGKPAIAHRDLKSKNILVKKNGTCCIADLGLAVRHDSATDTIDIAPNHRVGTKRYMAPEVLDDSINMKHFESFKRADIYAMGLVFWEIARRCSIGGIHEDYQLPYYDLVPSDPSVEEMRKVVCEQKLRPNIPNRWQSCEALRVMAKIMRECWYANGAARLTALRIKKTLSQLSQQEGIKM

TGFBR2 = TGFBR2 (Homo sapiens, UniProt P37173); test: as above
NMuMG cells = test: High-content microscopy EMT screen in TGFβ-treated NMuMG cells (FA, SF, FN, cell count); type: cell-based, murine
ROCK1 = ROCK1 (Homo sapiens, UniProt Q13464); test: Biochemical kinase profiling (33PanQinase radiometric assay)
SRC = SRC (Homo sapiens, UniProt P12931); test: as above
PDGFRB = PDGFRB (Homo sapiens, UniProt P09619); test: as above
ROCK = ROCK cellular assay (MLC Thr18/Ser19 phosphorylation ELISA in A7r5 cells); type: cell-based, rat; conditions: 90 min compound
Py2T cells = test: High-content microscopy EMT assay in TGFβ-treated Py2T breast cancer cells; type: cell-based, murine
PDGFRA = PDGFRA (Homo sapiens, UniProt P16234); test: Biochemical kinase profiling (33PanQinase radiometric assay); conditions: read-out: PDGFRA IC50; ATP at apparent Km
FGFR2 = FGFR2 (Homo sapiens, UniProt P21802); test: as above; conditions: read-out: FGFR2 IC50; ATP at apparent Km
FGFR4 = FGFR4 (Homo sapiens, UniProt P22455); test: as above; conditions: read-out: FGFR4 IC50; ATP at apparent Km
[1] = Mus musculus; NMuMG; cell count decreased by 50% compared to DMSO control; read-out: Tox IC50
[2] = NMuMG, TGFβ1 2 ng/ml plus compound, 4 days; parameter decreased by 50%
[3] = NMuMG; compared to reference 10 μM SB-431542 = 100%
[4] = NMuMG, TGFβ1 2 ng/ml plus compound, 4 days; parameter decreased by 50%; read-out: FA IC50 (focal adhesion formation)
[5] = NMuMG, TGFβ1 2 ng/ml plus compound, 4 days; parameter decreased by 50%; read-out: FN IC50 (fibronectin patch formation)
[6] = NMuMG, TGFβ1 2 ng/ml plus compound, 4 days; parameter decreased by 50%; read-out: SF IC50 (stress fibers)
[7] = NMuMG; cell count decreased by 50% compared to DMSO control; read-out: Tox IC50
[8] = NMuMG; mean of IC50 values obtained for FA, SF, FN; read-out: EMT (FA/SF/FN) combined IC50
[9] = Py2T, TGFβ plus compound, 4 days; read-out: FA IC50 (focal adhesions)
[10] = Py2T, TGFβ plus compound, 4 days; read-out: FN IC50 (fibronectin patches)
[11] = Py2T, TGFβ plus compound, 4 days; read-out: SF IC50 (stress fibers)
[12] = Py2T; cell count decreased by 50% compared to DMSO control; read-out: Tox IC50
[13] = Py2T; compared to 10 μM SB-431542; read-out: CCI IC50 (cell count increase)
[14] = Py2T; compared to reference 10 μM SB-431542 = 100%
[15] = Mus musculus, 96 h; NMuMG, TGFβ1 2 ng/ml plus compound, 4 days; parameter decreased by 50%; read-out: FA IC50 (focal adhesion formation)
[16] = Mus musculus, 96 h; NMuMG, TGFβ1 2 ng/ml plus compound, 4 days; parameter decreased by 50%; read-out: FN IC50 (fibronectin patch formation)
[17] = Mus musculus, 96 h; NMuMG, TGFβ1 2 ng/ml plus compound, 4 days; parameter decreased by 50%; read-out: SF IC50 (stress fibers)
[18] = Mus musculus; NMuMG; mean of IC50 values obtained for FA, SF, FN; read-out: EMT (FA/SF/FN) combined IC50
[19] = Mus musculus; read-out: CCI IC50 (cell count increase)
[20] = Mus musculus; read-out: Emax (maximal effect on cell count)
[21] = Mus musculus, 96 h; Py2T, TGFβ plus compound, 4 days; read-out: FA IC50 (focal adhesions)
[22] = Mus musculus, 96 h; Py2T, TGFβ plus compound, 4 days; read-out: FN IC50 (fibronectin patches)
[23] = Mus musculus, 96 h; Py2T, TGFβ plus compound, 4 days; read-out: SF IC50 (stress fibers)
[24] = Mus musculus; Py2T; cell count decreased by 50% compared to DMSO control; read-out: Tox IC50
[25] = read-out: TGFBR1 IC50, ATP at apparent Km
[26] = read-out: TGFBR2 IC50, ATP at apparent Km
[27] = NMuMG; cell count increased by 50% compared to 100% with 10 μM SB-431542; read-out: CCI IC50 (cell count increase)
[28] = read-out: PDGFRB IC50, ATP at apparent Km
[29] = Py2T, TGFβ plus compound, 4 days
[30] = Mus musculus, read-out: CCI IC50 (cell count increase)
[31] = Mus musculus, read-out: Emax (maximal effect on cell count)

Sequence of PDGFRB (P09619 33-1106): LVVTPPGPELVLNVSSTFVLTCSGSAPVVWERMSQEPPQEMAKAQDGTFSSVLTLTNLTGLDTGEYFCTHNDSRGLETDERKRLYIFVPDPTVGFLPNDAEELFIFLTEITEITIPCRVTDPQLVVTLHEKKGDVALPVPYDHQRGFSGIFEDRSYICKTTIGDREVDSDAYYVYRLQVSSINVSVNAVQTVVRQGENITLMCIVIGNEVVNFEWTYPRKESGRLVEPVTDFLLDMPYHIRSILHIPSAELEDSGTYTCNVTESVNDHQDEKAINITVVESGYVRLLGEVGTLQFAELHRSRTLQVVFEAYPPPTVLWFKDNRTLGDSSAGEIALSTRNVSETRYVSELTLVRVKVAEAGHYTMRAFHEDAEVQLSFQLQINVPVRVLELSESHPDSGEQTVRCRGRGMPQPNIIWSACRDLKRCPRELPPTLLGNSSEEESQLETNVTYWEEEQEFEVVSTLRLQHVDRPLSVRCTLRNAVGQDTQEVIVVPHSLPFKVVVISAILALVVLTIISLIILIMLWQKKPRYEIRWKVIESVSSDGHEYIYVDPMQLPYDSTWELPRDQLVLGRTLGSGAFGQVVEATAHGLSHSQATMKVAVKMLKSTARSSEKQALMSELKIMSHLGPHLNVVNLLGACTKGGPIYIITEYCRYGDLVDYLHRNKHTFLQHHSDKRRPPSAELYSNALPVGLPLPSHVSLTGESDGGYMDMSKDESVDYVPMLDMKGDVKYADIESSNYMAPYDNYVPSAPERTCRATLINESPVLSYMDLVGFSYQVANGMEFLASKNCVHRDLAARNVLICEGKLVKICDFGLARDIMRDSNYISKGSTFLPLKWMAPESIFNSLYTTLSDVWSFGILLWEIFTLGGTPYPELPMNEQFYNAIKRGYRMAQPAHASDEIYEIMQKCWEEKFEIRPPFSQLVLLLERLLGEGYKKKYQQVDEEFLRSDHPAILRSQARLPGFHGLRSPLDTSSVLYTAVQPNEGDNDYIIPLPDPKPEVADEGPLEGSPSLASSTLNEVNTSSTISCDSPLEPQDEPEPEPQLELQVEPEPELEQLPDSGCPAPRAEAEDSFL
Sequence of ROCK1 (Q13464 whole entry): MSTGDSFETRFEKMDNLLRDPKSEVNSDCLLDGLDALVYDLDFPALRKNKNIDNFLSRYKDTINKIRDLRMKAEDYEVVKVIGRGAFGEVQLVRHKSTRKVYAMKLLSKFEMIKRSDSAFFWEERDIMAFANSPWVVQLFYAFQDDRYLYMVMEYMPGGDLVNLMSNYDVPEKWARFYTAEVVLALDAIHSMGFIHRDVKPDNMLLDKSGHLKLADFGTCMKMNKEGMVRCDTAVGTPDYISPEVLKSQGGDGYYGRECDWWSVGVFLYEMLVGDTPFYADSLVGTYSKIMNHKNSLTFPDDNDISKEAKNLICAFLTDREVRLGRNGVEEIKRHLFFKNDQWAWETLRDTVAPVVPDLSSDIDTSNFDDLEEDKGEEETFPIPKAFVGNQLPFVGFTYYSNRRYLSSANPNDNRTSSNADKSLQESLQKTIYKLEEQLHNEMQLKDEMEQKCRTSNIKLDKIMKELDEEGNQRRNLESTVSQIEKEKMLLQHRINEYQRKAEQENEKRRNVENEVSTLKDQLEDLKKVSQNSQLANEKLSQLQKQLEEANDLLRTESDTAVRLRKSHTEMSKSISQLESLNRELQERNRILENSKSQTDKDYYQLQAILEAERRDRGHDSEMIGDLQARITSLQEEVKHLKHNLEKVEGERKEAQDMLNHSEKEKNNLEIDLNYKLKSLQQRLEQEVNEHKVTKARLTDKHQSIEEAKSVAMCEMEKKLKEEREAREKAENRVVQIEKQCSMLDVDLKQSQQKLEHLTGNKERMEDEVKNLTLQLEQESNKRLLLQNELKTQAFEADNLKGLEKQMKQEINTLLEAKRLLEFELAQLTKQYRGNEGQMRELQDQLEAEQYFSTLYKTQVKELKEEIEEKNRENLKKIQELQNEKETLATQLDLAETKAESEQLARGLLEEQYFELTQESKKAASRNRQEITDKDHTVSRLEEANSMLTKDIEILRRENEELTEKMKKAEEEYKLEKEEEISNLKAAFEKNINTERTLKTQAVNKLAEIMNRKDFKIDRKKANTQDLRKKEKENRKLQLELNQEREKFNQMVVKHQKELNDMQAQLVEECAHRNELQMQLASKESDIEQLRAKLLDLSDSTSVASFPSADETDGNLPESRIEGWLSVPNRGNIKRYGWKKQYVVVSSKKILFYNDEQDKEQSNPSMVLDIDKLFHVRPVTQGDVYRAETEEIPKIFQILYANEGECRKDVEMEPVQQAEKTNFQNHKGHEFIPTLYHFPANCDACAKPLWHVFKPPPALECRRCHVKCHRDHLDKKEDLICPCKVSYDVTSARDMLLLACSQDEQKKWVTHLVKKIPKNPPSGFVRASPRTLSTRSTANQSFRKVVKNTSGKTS
Sequence of ROCK2 (O75116 whole entry): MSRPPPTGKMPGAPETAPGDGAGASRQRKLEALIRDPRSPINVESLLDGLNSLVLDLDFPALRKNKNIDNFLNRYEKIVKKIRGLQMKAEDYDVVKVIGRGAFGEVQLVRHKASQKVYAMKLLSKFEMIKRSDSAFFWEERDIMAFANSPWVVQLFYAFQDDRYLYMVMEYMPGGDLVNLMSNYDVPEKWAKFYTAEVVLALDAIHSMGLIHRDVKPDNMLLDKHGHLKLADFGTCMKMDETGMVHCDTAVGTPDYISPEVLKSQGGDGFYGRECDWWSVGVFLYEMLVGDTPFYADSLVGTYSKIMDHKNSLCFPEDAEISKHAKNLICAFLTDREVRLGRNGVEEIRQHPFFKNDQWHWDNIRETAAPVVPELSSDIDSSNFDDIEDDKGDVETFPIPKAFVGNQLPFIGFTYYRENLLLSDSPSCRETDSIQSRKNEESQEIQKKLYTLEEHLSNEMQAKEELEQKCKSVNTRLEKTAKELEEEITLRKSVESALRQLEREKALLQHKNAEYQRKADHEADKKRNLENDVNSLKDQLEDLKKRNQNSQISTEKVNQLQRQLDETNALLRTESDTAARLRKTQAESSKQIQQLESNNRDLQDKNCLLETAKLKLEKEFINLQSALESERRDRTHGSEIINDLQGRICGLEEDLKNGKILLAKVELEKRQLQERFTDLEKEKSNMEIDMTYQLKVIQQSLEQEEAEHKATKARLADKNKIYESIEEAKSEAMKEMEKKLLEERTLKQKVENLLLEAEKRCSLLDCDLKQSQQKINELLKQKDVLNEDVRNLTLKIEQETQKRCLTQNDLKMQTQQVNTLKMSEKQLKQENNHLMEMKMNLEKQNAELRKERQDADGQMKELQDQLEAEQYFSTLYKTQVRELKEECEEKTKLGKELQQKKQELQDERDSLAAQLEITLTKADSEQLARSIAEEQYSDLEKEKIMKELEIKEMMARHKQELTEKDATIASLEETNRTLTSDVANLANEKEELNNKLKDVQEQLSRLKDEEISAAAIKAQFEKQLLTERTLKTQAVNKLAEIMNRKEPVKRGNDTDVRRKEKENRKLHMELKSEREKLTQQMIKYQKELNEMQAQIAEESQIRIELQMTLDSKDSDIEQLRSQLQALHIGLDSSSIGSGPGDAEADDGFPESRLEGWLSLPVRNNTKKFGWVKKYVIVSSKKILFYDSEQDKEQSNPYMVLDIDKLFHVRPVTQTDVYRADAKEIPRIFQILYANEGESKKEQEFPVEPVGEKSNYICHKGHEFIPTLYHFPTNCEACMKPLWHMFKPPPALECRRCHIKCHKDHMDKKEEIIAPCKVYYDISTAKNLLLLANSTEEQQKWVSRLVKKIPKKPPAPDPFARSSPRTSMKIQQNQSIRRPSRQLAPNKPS
Sequence of TGFBR2 (P37173 23-567): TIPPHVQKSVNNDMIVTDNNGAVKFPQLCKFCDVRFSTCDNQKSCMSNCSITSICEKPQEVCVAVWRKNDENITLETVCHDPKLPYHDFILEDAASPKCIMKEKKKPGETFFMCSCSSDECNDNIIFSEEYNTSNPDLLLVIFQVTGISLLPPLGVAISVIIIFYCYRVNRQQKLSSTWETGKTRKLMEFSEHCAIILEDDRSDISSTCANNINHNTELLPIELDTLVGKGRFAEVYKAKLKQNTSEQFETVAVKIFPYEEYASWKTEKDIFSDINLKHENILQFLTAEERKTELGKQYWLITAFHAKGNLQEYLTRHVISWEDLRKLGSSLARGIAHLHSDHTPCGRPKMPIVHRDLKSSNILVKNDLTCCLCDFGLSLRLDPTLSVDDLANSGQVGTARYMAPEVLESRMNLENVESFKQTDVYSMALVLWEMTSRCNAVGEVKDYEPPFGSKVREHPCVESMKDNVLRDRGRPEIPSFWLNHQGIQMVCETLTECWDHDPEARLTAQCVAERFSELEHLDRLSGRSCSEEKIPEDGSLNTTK
Sequence of SRC (P12931 whole entry): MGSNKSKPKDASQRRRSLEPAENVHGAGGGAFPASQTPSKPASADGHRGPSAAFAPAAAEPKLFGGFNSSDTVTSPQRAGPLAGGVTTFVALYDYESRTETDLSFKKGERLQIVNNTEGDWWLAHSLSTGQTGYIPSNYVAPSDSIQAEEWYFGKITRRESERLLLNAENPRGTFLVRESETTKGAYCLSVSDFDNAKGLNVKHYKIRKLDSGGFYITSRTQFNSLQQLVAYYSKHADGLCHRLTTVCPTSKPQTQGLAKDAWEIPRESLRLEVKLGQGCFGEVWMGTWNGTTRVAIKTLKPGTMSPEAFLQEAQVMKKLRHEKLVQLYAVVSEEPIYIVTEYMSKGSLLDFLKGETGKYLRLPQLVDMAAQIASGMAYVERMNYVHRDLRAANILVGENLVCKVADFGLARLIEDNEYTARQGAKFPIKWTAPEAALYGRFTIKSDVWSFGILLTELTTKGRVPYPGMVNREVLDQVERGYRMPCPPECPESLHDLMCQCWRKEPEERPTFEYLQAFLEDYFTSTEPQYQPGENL

| Compound | IC50 (ROCK2) | IC50 (NMuMG cells; [4]) | IC50 (NMuMG cells; [5]) | IC50 (NMuMG cells; [6]) | IC50 (NMuMG cells; [8]) | IC50 (Py2T cells; [13]) | IC50 (NMuMG cells; [15]) | IC50 (NMuMG cells; [16]) | IC50 (NMuMG cells; [17]) | IC50 (NMuMG cells; [18]) | IC50 (NMuMG cells; [27]) | IC50 (NMuMG cells; [1]) | Emax (maximal effect on cell count) (NMuMG cells; [3]) | IC50 (NMuMG cells; [7]) | IC50 (ROCK) | IC50 (Py2T cells; [12]) | Emax (maximal effect on cell count) (Py2T cells; [14]) | further results |
| --- | --- | --- | --- | --- | --- | --- | --- | --- | --- | --- | --- | --- | --- | --- | --- | --- | --- | --- |
| Cc1ccc2c(c1)C(=O)C1(O)CCN(c3ccccc3)C1=N2 (stereo not drawn) [Blebbistatin] | – | 4220 nM | 2550 nM | 3320 nM | 3360 nM | – | – | – | – | – | – | – | 29.4% | > 5130 nM | – | – | – | IC50 (SRC; read-out: SRC IC50, ATP at apparent Km): 4370 nM |
| CCn1c(-c2nonc2N)nc2cnc(Oc3cccc(NC(=O)c4ccc(OCCN5CCOCC5)cc4)c3)cc21 [GSK269962] | – | – | – | – | – | 0.5 nM | – | – | – | – | – | – | – | – | < 3 nM | 564 nM | 53% | IC50 (Py2T cells; [9]): 2 nM; IC50 (Py2T cells; [10]): 5 nM; IC50 (Py2T cells; [11]): 2 nM |
| Cc1ccc(-c2nn(C(C)(C)C)c3ncnc(N)c23)cc1 [PP1] | – | 910 nM | 1520 nM | 1140 nM | 1190 nM | – | – | – | – | – | 374 nM | – | 22.3% | 11400 nM | – | – | – | IC50 (PDGFRA): 3690 nM; IC50 (TGFBR1; [25]): 297 nM; IC50 (TGFBR2; [26]): 1310 nM; IC50 (PDGFRB; [28]): 132 nM; IC50 (FGFR2): 456 nM; IC50 (FGFR4): 622 nM |
| CCn1c(-c2nonc2N)nc2cncc(C(=O)N3CC[C@H](N)C3)c21 [SB-772077B] | – | – | – | – | – | – | 51 nM | 54 nM | 29 nM | 44.7 nM | – | 5330 nM | – | – | – | – | – | IC50 (ROCK; Rattus norvegicus, 1.5 h): 28 nM; IC50 (NMuMG cells; [30]): 50.5 nM; Emax (NMuMG cells; [31]): 30.5%; IC50 (Py2T cells; [30]): 28.4 nM; Emax (Py2T cells; [31]): 63.6%; IC50 (Py2T cells; Mus musculus, read-out: Tox IC50): 1960 nM |
| Cc1[nH]c(/C=C2\C(=O)Nc3ccccc32)c(C)c1CCC(=O)O [TSU-68] | – | > 10000 nM | > 10000 nM | > 10000 nM | – | – | – | – | – | – | > 10000 nM | – | 1.7% | > 10000 nM | > 10000 nM | – | – | IC50 (PDGFRA): 78.2 nM; IC50 (TGFBR1; [25]): > 10000 nM; IC50 (TGFBR2; [26]): > 10000 nM; IC50 (PDGFRB; [28]): 103 nM; IC50 (FGFR2): 590 nM |

More lines, main results first:

| IC50 (ROCK2) | IC50 (NMuMG cells; [4]) | IC50 (NMuMG cells; [5]) | IC50 (NMuMG cells; [6]) | IC50 (NMuMG cells; [8]) | IC50 (Py2T cells; [13]) | IC50 (NMuMG cells; [15]) | IC50 (NMuMG cells; [16]) | IC50 (NMuMG cells; [17]) | IC50 (NMuMG cells; [18]) | IC50 (NMuMG cells; [27]) | Compound | IC50 (NMuMG cells; [1]) | Emax (maximal effect on cell count) (NMuMG cells; [3]) | IC50 (NMuMG cells; [7]) | IC50 (ROCK) | IC50 (Py2T cells; [12]) | Emax (maximal effect on cell count) (Py2T cells; [14]) | further results |
| --- | --- | --- | --- | --- | --- | --- | --- | --- | --- | --- | --- | --- | --- | --- | --- | --- | --- | --- |
| > 10000 nM | – | – | – | – | – | – | – | – | – | – | CCN1CCN(c2ccc(Nc3cc(N(C)C(=O)Nc4c(Cl)c(OC)cc(OC)c4Cl)ncn3)cc2)CC1 [BGJ398] | 1500 nM | n.m. | – | – | – | – | IC50 (TGFBR1): > 10000 nM; IC50 (TGFBR2): > 10000 nM; FA IC50 (focal adhesion formation) (NMuMG cells; [2]): n.m.; FN IC50 (fibronectin patch formation) (NMuMG cells; [2]): n.m.; SF IC50 (stress fibers) (NMuMG cells; [2]): n.m.; IC50 (ROCK1): > 10000 nM; IC50 (SRC): 7940 nM; IC50 (PDGFRB): 7430 nM |
| – | – | – | – | – | > 25000 nM | – | – | – | – | – | NC(=O)c1ccc(NC(=O)NCc2cccc(C(=O)Nc3ccc4c(c3)CNCC4)c2)cc1 [CAY10622] | – | – | – | > 10000 nM | > 25000 nM | 18.4% | IC50 (ROCK2; read-out: ROCK2 IC50, ATP at apparent Km): 17.8 nM; IC50 (Py2T cells; [9]): > 25000 nM; IC50 (Py2T cells; [10]): > 25000 nM; IC50 (Py2T cells; [11]): > 25000 nM; IC50 (ROCK1; read-out: ROCK1 IC50, ATP at apparent Km): 54 nM |
| 55.3 nM | – | – | – | – | – | 127 nM | 264 nM | 82 nM | 158 nM | – | CC1=C(C(=O)Nc2cc3cn[nH]c3cc2F)C(c2ccc(C(F)(F)F)cc2)CC(=O)N1 (stereo not drawn) [GSK429286A] | > 25000 nM | – | – | – | – | – | IC50 (ROCK; Rattus norvegicus, 1.5 h): 29 nM; IC50 (NMuMG cells; [19]): 142 nM; Emax (NMuMG cells; [20]): 33.2%; IC50 (Py2T cells; [21]): 245 nM; IC50 (Py2T cells; [22]): 192 nM; IC50 (Py2T cells; [23]): 105 nM; IC50 (Py2T cells; [24]): 20300 nM; IC50 (Py2T cells; [19]): 51.8 nM; Emax (Py2T cells; [20]): 47.5%; IC50 (ROCK1): 46.7 nM |
| – | 425 nM | 374 nM | 571 nM | 457 nM | 101 nM | – | – | – | – | 106 nM | O=C(Nc1ccc(-c2cn[nH]c2)cc1)C1COc2ccccc2O1 (stereo not drawn) [Rho kinase inhibitor V] | – | 13.4% | 6230 nM | 150 nM | 2510 nM | 33.3% | FA IC50 (focal adhesions) (Py2T cells; [29]): n.m.; FN IC50 (fibronectin patches) (Py2T cells; [29]): n.m.; SF IC50 (stress fibers) (Py2T cells; [29]): n.m. |
| 76 nM | – | – | – | – | – | 160 nM | 179 nM | 31 nM | 123 nM | – | CN(C)CCOc1cc(-c2cn[nH]c2)ccc1NC(=O)C1COc2ccccc2O1 (stereo not drawn) [SR-3677] | > 25000 nM | – | – | – | – | – | IC50 (NMuMG cells; [19]): 50.6 nM; Emax (NMuMG cells; [20]): 34.7%; IC50 (Py2T cells; [21]): 415 nM; IC50 (Py2T cells; [22]): 521 nM; IC50 (Py2T cells; [23]): 89 nM; IC50 (Py2T cells; [24]): 6810 nM; IC50 (Py2T cells; [19]): 15 nM; Emax (Py2T cells; [20]): 51% |
